Structures can show the parent of a compound that is named as a salt.
Assays:
normal human hepatocytes = experiment: 60-agent chemical screen, cell viability (Cell-Titer Glo), hepatocytes; type: cell-based; details: Hepatocyte, 60-agent screen, 72 hours, a value of 10,000 indicates that the drug did not inhibit viability, read-out: absolute IC50, Hepatocytes;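 further: cells were plated onto pre-diluted drug concentrations in 384-well plates, and viability was read after 72 h as CellTiter-Glo 2.0 luminescence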
Description: (§1) On day 0, cells were trypsinized and plated into a white walled 384-well plate containing pre-diluted known concentrations of various drugs. After 72 hours, an equal volume of Cell-Titer Glo 2.0 (G9243, Promega) was added to each well, incubated at room temperature while rocking in the dark for 15 minutes, followed by luminescence acquisition with a BioTek Synergy HT plate reader (BioTek, Winooski, VT).

HepG2 = experiment: 60-agent chemical screen, cell viability (Cell-Titer Glo), HepG2; type: cell-based; details: Homo sapiens, 60-agent screen, 72 hours, a value of 10,000 indicates that the drug did not inhibit viability, read-out: absolute IC50, HepG2;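 further: luminescence read-out in 384-well plates, with cells plated directly onto drug dilutions of known concentration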
Description: as §1

Huh-6 = experiment: 60-agent chemical screen, cell viability (Cell-Titer Glo), Huh-6; type: cell-based; details: Homo sapiens, 60-agent screen, 72 hours, a value of 10,000 indicates that the drug did not inhibit viability, read-out: absolute IC50, Huh-6
Description: as §1

HB-214 = experiment: 60-agent chemical screen, cell viability (Cell-Titer Glo), HB-214; type: cell-based; details: Homo sapiens; 60-agent screen, 72 hours; a value of 10,000 indicates that the drug did not inhibit viability; read-out: absolute IC50, HB-214;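 further: viability read as luminescence once Cell-Titer Glo 2.0 reagent was added to drug-treated cells in 384-well plates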
Description: as §1

[1] = tested on: hepatoblastoma cell lines HepG2, Huh-6 and HB-214 versus hepatocytes
Description: as §1

[2] = cited from earlier work

Structure (SMILES)	IC50 (normal human hepatocytes) [µM]	IC50 (HepG2) [µM]	IC50 (Huh-6) [µM]	IC50 (HB-214) [µM]	Ratio normal/cancer: average ratio of the IC50 in hepatocytes to the IC50 in hepatoblastoma cell lines [1]	side effects ([2]; irinotecan)	known toxicity ([2]; in vivo)
Nc1ccccc1NC(=O)c1ccc(CNC(=O)OCc2cccnc2)cc1 [entinostat]	0.217	0.392	> 10	1.49			
CN(C(=O)c1ccc(F)cc1C(F)(F)F)C1CCN(c2nnc(-c3ccnn3C)c3ccccc23)CC1 [LY2940680]	> 10	> 10	> 10	> 10			
N#CC[C@H](C1CCCC1)n1cc(-c2ncnc3[nH]ccc23)cn1 [ruxolitinib]	> 10	> 10	> 10	> 10			
COc1cc2nc(N3CCCN(C)CC3)nc(NC3CCN(Cc4ccccc4)CC3)c2cc1OC [BIX 01294]	2.04	2.9	2.81	1.72			
CNC(=O)CN1CCC(Oc2cc3c(Nc4cccc(Cl)c4F)ncnc3cc2OC)CC1 [AZD8931]	1.45	> 10	> 10	> 10			
CC(=O)c1c(C)c2cnc(Nc3ccc(N4CCNCC4)cn3)nc2n(C2CCCC2)c1=O [PD 0332991]	> 10	6.07	> 10	1.89			
C[C@@H](Oc1cc(-c2cnn(C3CCNCC3)c2)cnc1N)c1c(Cl)ccc(F)c1Cl [crizotinib]	2.16	2.17	4.42	7.64			
Cc1cc(-c2ncc(CC(=O)Nc3ccc(-c4cnccn4)cn3)cc2C)ccn1 [LGK974]	7.72	> 10	> 10	> 10			
CCOc1cc(C(C)(C)C)ccc1C1=N[C@@](C)(c2ccc(Cl)cc2)[C@@](C)(c2ccc(Cl)cc2)N1C(=O)N1CCN(CCCS(C)(=O)=O)CC1 [RO5045337]	> 10	> 10	> 10	4.15			
O=C(O)c1ccc2c(c1)nc(Nc1cccc(Cl)c1)c1ccncc12 [CX-4945]	> 10	6.2	4.81	> 10			
CO[C@H]1C[C@@H]2CC[C@@H](C)[C@@](O)(O2)C(=O)C(=O)N2CCCC[C@H]2C(=O)O[C@H]([C@H](C)C[C@@H]2CC[C@@H](O)[C@H](OC)C2)CC(=O)[C@H](C)/C=C(\C)[C@@H](O)[C@@H](OC)C(=O)[C@H](C)C[C@H](C)/C=C/C=C/C=C/1C [sirolimus]	> 10	> 10	> 10	> 10			
CN(C)C(=N)N=C(N)N [metformin HCL]	> 10	> 10	> 10	> 10			
O=c1ncccn1[C@@H]1O[C@H](CO)[C@@H](O)[C@H]1O [zebularine]	> 10	> 10	> 10	> 10			
CC(C)n1nc(-c2ccc3oc(N)nc3c2)c2c(N)ncnc21 [INK 128]	0.007	0.126	2.43	0.001			
Cc1ccc(Nc2nccc(N(C)c3ccc4c(C)n(C)nc4c3)n2)cc1S(N)(=O)=O [pazopanib]		> 10	> 10	> 10			
Cc1[nH]c2ccccc2c1CCNCc1ccc(/C=C/C(=O)NO)cc1 [panobinostat]	0.039	0.08	1.14	0.25			
CC(C)n1c(/C=C/C(O)CC(O)CC(=O)O)c(-c2ccc(F)cc2)c2ccccc21 (stereo not drawn) [fluvastatin]		> 10	4.44	> 10			
CN1CCC(CNc2ccc3ncc(-c4cccc(OC(F)(F)F)c4)n3n2)CC1 [SGI-1776]	0.233	1.72	4.62	1.53			
CCc1cnn2c(NCc3ccc[n+]([O-])c3)cc(N3CCCC[C@H]3CCO)nc12 [dinaciclib]	0.001						
CC(C)N(CCCNC(=O)Nc1ccc(C(C)(C)C)cc1)C[C@H]1O[C@@H](n2cc(Br)c3c(N)ncnc32)[C@H](O)[C@@H]1O [SGC0946]	0.51	6.39	1.56	> 10			
Clc1ccc(N/N=C(\c2ccccc2)c2ccccn2)nc1 [JIB-04]					4		
COc1cccc(OCCCN)c1-c1cc(Nc2cnc(C#N)cn2)n[nH]1 [LY2606368]	> 10	5.4	5.27	4.7			
COCCn1c2c([n+](Cc3cnccn3)c1C)C(=O)c1ccccc1C2=O [YM155]	0.034	0.124	4.47	0.26			

Structure (SMILES)	IC50 (normal human hepatocytes) [µM]	IC50 (HepG2) [µM]	IC50 (Huh-6) [µM]	IC50 (HB-214) [µM]	Ratio normal/cancer: average ratio of the IC50 in hepatocytes to the IC50 in hepatoblastoma cell lines [1]	side effects ([2]; irinotecan)	known toxicity ([2]; in vivo)
CC1(C)CCC(c2ccc(Cl)cc2)=C(CN2CCN(c3ccc(C(=O)NS(=O)(=O)c4ccc(N[C@H](CCN5CCOCC5)CSc5ccccc5)c(S(=O)(=O)C(F)(F)F)c4)cc3)CC2)C1 [ABT-263]	> 10	> 10	> 10	> 10			
O=C1NC(=O)C(c2cnc3ccccn23)=C1c1cn2c3c(cc(F)cc13)CN(C(=O)N1CCCCC1)CC2 [LY2090314]	0.837	> 10	> 10	> 10			
CCc1c2c(nc3ccc(OC(=O)N4CCC(N5CCCCC5)CC4)cc13)-c1cc3c(c(=O)n1C2)COC(=O)[C@]3(O)CC [irinotecan]						diarrhea and neutropenia	
Cc1cc(Nc2cc(N3CCN(C)CC3)nc(Sc3ccc(NC(=O)C4CC4)cc3)n2)[nH]n1 [tozasertib]	> 10	> 10	3.26	1.48			
CCCc1c(OCCCOc2cc(O)c(-c3ccc(F)cc3)cc2CC)cccc1Oc1ccccc1C(=O)O [LY293111]	> 10	> 10	> 10	> 10			
CC(C)(C)Cn1c(N)nc2ccc(-c3[nH]c(C(C)(C)C)nc3-c3ccc(F)cc3)nc21 [LY2228820]	0.076	> 10	> 10	> 10			
COc1ccc(C[C@@H](C)[C@@H](C)Cc2ccc(OC)c(OC)c2)cc1OC [EM1421]	> 10	> 10	> 10	> 10			
Cn1c(=O)n(-c2ccc(C(C)(C)C#N)cc2)c2c3cc(-c4cnc5ccccc5c4)ccc3ncc21 [BEZ235]	0.048	0.478	> 10	0.61			
C[C@]1(O)C[C@@H](c2nc(-c3ccc4ccc(-c5ccccc5)nc4c3)c3c(N)nccn32)C1 [OSI-906]	5.9	> 10	> 10	1.8			
CN1CCc2c(c3ccccc3n2Cc2ccc(C(=O)NO)cc2)C1 [tubastatin A]	> 10	> 10	> 10	> 10			
Cc1nc(Nc2ncc(C(=O)Nc3c(C)cccc3Cl)s2)cc(N2CCN(CCO)CC2)n1 [dasatinib]	> 10	5.02	2.62	> 10			
CS(=O)(=O)c1cccc(CNc2nc(Nc3ccc4c(c3)CCC(=O)N4)ncc2C(F)(F)F)c1 [PF 573228]					1		
C[C@@H](Oc1ccc2[nH]nc(/C=C/c3cnn(CCO)c3)c2c1)c1c(Cl)cncc1Cl [LY2874455]	2.17	> 10	> 10	> 10			
Cc1ccc(-c2cc(C(F)(F)F)nn2-c2ccc(S(N)(=O)=O)cc2)cc1 [celecoxib]	> 10	> 10	> 10	> 10			
CC(C)(C(=O)NCC(F)(F)C(F)(F)F)C(=O)N[C@@H]1C(=O)Nc2ccccc2-c2ccccc21 [RO4929097]	> 10	> 10	> 10	> 10			
CCOC(=O)CCNc1cc(N2CCc3ccccc3CC2)nc(-c2ccccn2)n1 [GSK-J4 HCl]	> 10	> 10	4.8	> 10			
Nc1nc(O)c2ncn(COC(CO)CO)c2n1 [ganciclovir]	> 10	> 10	> 10	> 10			
Nc1nc2[nH]cc(CCc3ccc(C(=O)N[C@@H](CCC(=O)O)C(=O)O)cc3)c2c(=O)[nH]1 [pemetrexed]	> 10	> 10	> 10	> 10			
C=C[C@@]1(C)CC(=O)[C@]2(O)[C@@]3(C)[C@@H](O)CCC(C)(C)[C@@H]3[C@H](O)[C@H](OC(C)=O)[C@@]2(C)O1 [forskolin]	> 10	> 10	> 10	> 10			
C=CCn1c(=O)c2cnc(Nc3ccc(N4CCN(C)CC4)cc3)nc2n1-c1cccc(C(C)(C)O)n1 [MK-1775]	> 10	> 10	> 10	1.18			
Cc1ccc(S(=O)(=O)/C=C/C#N)cc1 [BAY-11-7082]					1		
CN[C@@H](C)C(=O)N[C@H](C(=O)N1CCC[C@H]1c1nc(C(=O)c2ccc(F)cc2)cs1)C1CCCCC1 [LCL161]	> 10	> 10	> 10	> 10			
C/C=C(/C)C(=O)O[C@H]1C(C)=C2[C@H]([C@@H]1OC(=O)CCCCCCC)[C@@](C)(OC(C)=O)C[C@H](OC(=O)CCC)[C@@]1(O)[C@H]2OC(=O)[C@@]1(C)O [thapsigargin]	0.519	0.021	0.28	0.16			significant renal toxicity
